This passage reports IC50 results from patent US20240148821A1, “PHARMACEUTICAL USE OF CYCLIC PEPTIDE COMPOUND” (CHUGAI SEIYAKU KABUSHIKI KAISHA, priority 2021, published 2024).

Structures are written as SMILES. Numbered stars: 1 amine (or outer) side, 2 acyl side, 3 side chain; on linkers, the order of the positions; unused ones are H or OH. Bridge positions count the residues as written; N and C are the ends. Square brackets hold non-standard residues; d marks the D form. Peptide text beside a SMILES is read from it. * marks the point of attachment. hPhe(3-Cl-4-CF3) = N[C@@H](CCc1ccc(C(F)(F)F)c(Cl)c1)C(=O)O; hPhe(3-F,4-CF3) = N[C@@H](CCc1ccc(C(F)(F)F)c(F)c1)C(=O)O; NEtPhe(2-Cl) = CCN[C@@H](Cc1ccccc1Cl)C(=O)O; NMePhe(4-Me) = CN[C@@H](Cc1ccc(C)cc1)C(=O)O; NMedβ3hAla = C[C@H](CC(=O)[*:2])N(C)[*:1]; mXylylene = c1cc(C[*:1])cc(C[*:2])c1; NMeGly(cBu) = CN[C@H](C(=O)O)C1CCC1; NMeCha = CN[C@@H](CC1CCCCC1)C(=O)O; cisHyp = O=C(O)[C@@H]1C[C@H](O)CN1; Hyp = O=C(O)[C@@H]1C[C@@H](O)CN1; NMeCba = CN[C@@H](CC1CCC1)C(=O)O; NMeChg = CN[C@H](C(=O)O)C1CCCCC1; NMeI = CC[C@H](C)[C@H](NC)C(=O)O; NMeD = CN[C@@H](CC(=O)O)C(=O)O; NMeL = CN[C@@H](CC(C)C)C(=O)O; NMeV = CN[C@H](C(=O)O)C(C)C; NPhGly = O=C(O)CNc1ccccc1; NMeA = CN[C@@H](C)C(=O)O; NMeAib = CNC(C)(C)C(=O)O; Piperidide = C1CCN(*)CC1; Ac5c = NC1(C(=O)O)CCCC1; Aze = O=C(O)[C@@H]1CCN1; Ethyl(2,2-F2) = FC(F)C*; Ethyl(2-OH) = OCC*; X14 = c1cc(C*)cs1; X9 = c1cncc(C*)c1; Sar = CNCC(=O)O

The target in this experiment is protein-protein interaction between Kras and SOS1 (biotin-tagged human Kras loaded with GDP, His-tagged human SOS1) (Homo sapiens (Human), UniProt P01116, G12D). As to the kind of experiment: Protein-protein interaction inhibition between Kras and SOS1 (KrasG12D-SOS PPI) using AlphaScreen.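 Note: kras produced in E. coli, Ni-coupled donor beads and streptavidin acceptor beads, excitation 680 nm with emission detected at 520–620 nm via singlet oxygen transfer.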 Type of experiment: biochemical. To be noted: AlphaScreen; biotin-tagged human Kras loaded with GDP, His-tagged human SOS1; read-out: KRAS G12D-SOS PPI IC50. A general note: In Alpha technology, singlet oxygen from a donor bead excites a nearby acceptor bead.
In general, IC50 refers to the concentration at which inhibition is half-maximal. Turning to `CC[C@H](C)[C@@H]1NC(=O)[C@H](CC(C)C)N(C)C(=O)C[C@@H](C(=O)N2CCCCC2)N(C)C(=O)[C@H](C2CCCCC2)N(C)C(=O)C2(CCCC2)NC(=O)[C@@H]2C[C@H](OCc3cccnc3)CN2C(=O)[C@H](CCc2ccc(C(F)(F)F)c(Cl)c2)NC(=O)CN(C)C(=O)[C@H](CC2CCCCC2)N(C)C(=O)CN(C)C(=O)CN(C)C1=O` [Compound 2120] ([NMeL]I[Sar][Sar][NMeCha][Sar][hPhe(3-Cl-4-CF3)][cisHyp](X9)[Ac5c][NMeChg][NMeD]-Piperidide; lactam N-11), the IC50 is 1 nM.

As to `CC[C@H](C)[C@@H]1NC(=O)[C@H](CC(C)C)N(C)C(=O)C[C@@H](C(=O)N2CCCCC2)N(C)C(=O)[C@H](C2CCCCC2)N(C)C(=O)C2(CCCC2)NC(=O)[C@@H]2C[C@@H](OCc3cccnc3)CN2C(=O)[C@H](CCc2ccc(C(F)(F)F)c(Cl)c2)NC(=O)CN(C)C(=O)[C@H](CC2CCCCC2)N(C)C(=O)CN(C)C(=O)CN(C)C1=O` [Compound 2121] ([NMeL]I[Sar][Sar][NMeCha][Sar][hPhe(3-Cl-4-CF3)][Hyp](X9)[Ac5c][NMeChg][NMeD]-Piperidide; lactam N-11), the IC50 came to 0.56 nM.

As to `CC[C@H](C)[C@@H]1NC(=O)[C@H](CC(C)C)N(C)C(=O)C[C@@H](C(=O)N2CCCCC2)N(C)C(=O)[C@H](C2CCCCC2)N(C)C(=O)C2(CCCC2)NC(=O)[C@@H]2C[C@@H](OCCO)CN2C(=O)[C@H](CCc2ccc(C(F)(F)F)c(Cl)c2)NC(=O)CN(C)C(=O)[C@H](CC2CCCCC2)N(C)C(=O)CN(C)C(=O)CN(C)C1=O` [Compound 2122, (3S,9S,18S,21S,25S,28S,34S,36R)-3-[2-[3-chloro-4-(trifluoromethyl)phenyl]ethyl]-28-cyclohexyl-9-(cyclohexylmethyl)-36-(2-hydroxyethoxy)-21-isobutyl-7,10,13,16,22,26,29-heptamethyl-18-[(1S)-1-methylpropyl]-25-(piperidine-1-carbonyl)spiro[1,4,7,10,13,16,19,22,26,29,32-undecazabicyclo[32.3.0]heptatriacontane-31,1′-cyclopentane]-2,5,8,11,14,17,20,23,27,30,33-undecone] ([NMeL]I[Sar][Sar][NMeCha][Sar][hPhe(3-Cl-4-CF3)][Hyp](Ethyl(2-OH))[Ac5c][NMeChg][NMeD]-Piperidide; lactam N-11), the half-maximal inhibitory concentration (IC50) is 0.46 nM.

Consider `CC[C@H](C)[C@@H]1NC(=O)[C@H](CC(C)C)N(C)C(=O)C[C@@H](C(=O)N2CCCCC2)N(C)C(=O)[C@H](C2CCCCC2)N(C)C(=O)C2(CCCC2)NC(=O)[C@@H]2C[C@H](OCC(F)F)CN2C(=O)[C@H](CCc2ccc(C(F)(F)F)c(Cl)c2)NC(=O)CN(C)C(=O)[C@H](CC2CCCCC2)N(C)C(=O)CN(C)C(=O)CN(C)C1=O` [Compound 2123] ([NMeL]I[Sar][Sar][NMeCha][Sar][hPhe(3-Cl-4-CF3)][cisHyp](Ethyl(2,2-F2))[Ac5c][NMeChg][NMeD]-Piperidide; lactam N-11), for which the concentration for half-maximal inhibition (IC50) turned out to be 1.5 nM.

On to `CC[C@H](C)[C@@H]1NC(=O)[C@H](CC(C)C)N(C)C(=O)C[C@@H](C(=O)N2CCCCC2)N(C)C(=O)[C@H](C2CCCCC2)N(C)C(=O)C2(CCCC2)NC(=O)[C@@H]2C[C@@H](OCc3ccsc3)CN2C(=O)[C@H](CCc2ccc(C(F)(F)F)c(Cl)c2)NC(=O)CN(C)C(=O)[C@H](CC2CCCCC2)N(C)C(=O)CN(C)C(=O)CN(C)C1=O` [Compound 2124] ([NMeL]I[Sar][Sar][NMeCha][Sar][hPhe(3-Cl-4-CF3)][Hyp](X14)[Ac5c][NMeChg][NMeD]-Piperidide; lactam N-11), for which the half-inhibitory concentration (IC50) worked out at 0.91 nM.

Consider `CC[C@H](C)[C@@H]1NC(=O)[C@H](CC(C)C)N(C)C(=O)C[C@@H](C(=O)N2CCCCC2)N(C)C(=O)[C@H](CC(C)C)N(C)C(=O)C2(CCCC2)NC(=O)[C@@H]2C[C@@H](OCc3cccc(C)c3)CN2C(=O)[C@H](CCc2ccc(C(F)(F)F)c(F)c2)NC(=O)CN(C)C(=O)[C@H](CC2CCCCC2)N(C)C(=O)CN(C)C(=O)CN(C)C1=O` [Compound 2125] ([NMeL]I[Sar][Sar][NMeCha][Sar][hPhe(3-F,4-CF3)][Hyp](mXylylene)[Ac5c][NMeL][NMeD]-Piperidide; lactam N-11), for which the 50% inhibitory concentration (IC50) was found to be 16 nM.

On to `CC[C@H](C)[C@@H]1NC(=O)[C@H](CC(C)C)N(C)C(=O)C[C@@H](C(=O)N2CCCCC2)N(C)C(=O)[C@H](CC(C)C)N(C)C(=O)C2(CCCC2)NC(=O)[C@@H]2C[C@H](OCc3cccc(C)c3)CN2C(=O)[C@H](CCc2ccc(C(F)(F)F)c(F)c2)NC(=O)CN(C)C(=O)[C@H](CC2CCCCC2)N(C)C(=O)CN(C)C(=O)CN(C)C1=O` [Compound 2141] ([NMeL]I[Sar][Sar][NMeCha][Sar][hPhe(3-F,4-CF3)][cisHyp](mXylylene)[Ac5c][NMeL][NMeD]-Piperidide; lactam N-11), for which the IC50 was found to be 72 nM.

On to `CC[C@H](C)[C@@H]1NC(=O)[C@H](C)N(C)C(=O)C[C@@H](C)N(C)C(=O)[C@H](C2CCC2)N(C)C(=O)C(C)(C)N(C)C(=O)CN(c2ccccc2)C(=O)[C@H](CCc2ccc(C(F)(F)F)c(Cl)c2)NC(=O)CN(C)C(=O)[C@H](C2CCC2)N(C)C(=O)[C@@H]2CCN2C(=O)[C@H](C)N(C)C1=O` [Compound 2148] (cyclo([Aze][NMeGly(cBu)][Sar][hPhe(3-Cl-4-CF3)][NPhGly][NMeAib][NMeGly(cBu)][NMedβ3hAla][NMeA]I[NMeA])), for which the IC50 was 63 nM.

In the case of `CC[C@H](C)[C@@H]1NC(=O)[C@H](C)N(C)C(=O)C[C@@H](C)N(C)C(=O)[C@H](CC2CCC2)N(C)C(=O)C(C)(C)N(C)C(=O)[C@@H]2CCCN2C(=O)[C@H](CCc2ccc(C(F)(F)F)c(Cl)c2)NC(=O)CN(C)C(=O)[C@H](CC2CCCCC2)N(C)C(=O)[C@@H]2CCN2C(=O)[C@H](C)N(C)C1=O` [Compound 2152] (cyclo([Aze][NMeCha][Sar][hPhe(3-Cl-4-CF3)]P[NMeAib][NMeCba][NMedβ3hAla][NMeA]I[NMeA])), the IC50 was 71 nM.

On to `CC[C@H](C)[C@@H]1NC(=O)[C@H](C)N(C)C(=O)C[C@@H](C)N(C)C(=O)[C@H](C2CCCCC2)N(C)C(=O)C(C)(C)N(C)C(=O)[C@@H]2CCCN2C(=O)[C@H](CCc2ccc(C(F)(F)F)c(Cl)c2)NC(=O)CN(C)C(=O)[C@H](CC2CCCCC2)N(C)C(=O)[C@@H]2CCN2C(=O)[C@H](C)N(C)C1=O` [Compound 2155] (cyclo([Aze][NMeCha][Sar][hPhe(3-Cl-4-CF3)]P[NMeAib][NMeChg][NMedβ3hAla][NMeA]I[NMeA])), for which the IC50 stood at 28 nM.

On to `CC[C@H](C)[C@@H]1NC(=O)[C@H](C)N(C)C(=O)C[C@@H](C)N(C)C(=O)[C@H](C2CCC2)N(C)C(=O)C(C)(C)N(C)C(=O)[C@@H]2CCCN2C(=O)[C@H](CCc2ccc(C(F)(F)F)c(Cl)c2)NC(=O)CN(C)C(=O)[C@H](CC2CCCCC2)N(C)C(=O)[C@@H]2CCN2C(=O)[C@H](C)N(C)C1=O` [Compound 2157] (cyclo([Aze][NMeCha][Sar][hPhe(3-Cl-4-CF3)]P[NMeAib][NMeGly(cBu)][NMedβ3hAla][NMeA]I[NMeA])), for which the IC50 was determined as 6.9 nM.

Turning to `CC[C@H](C)[C@@H]1NC(=O)[C@H]([C@@H](C)CC)N(C)C(=O)C[C@@H](C)N(C)C(=O)[C@H](C(C)C)N(C)C(=O)C(C)(C)N(C)C(=O)[C@@H]2CCCN2C(=O)[C@H](CCc2ccc(C(F)(F)F)c(Cl)c2)NC(=O)CN(C)C(=O)[C@H](CC2CCCCC2)N(C)C(=O)[C@@H]2CCN2C(=O)[C@H](C)N(C)C1=O` [Compound 2159, (5S,8S,11S,15R,18S,23aS,29S,35S,37aS)-8,11-di((S)-sec-butyl)-29-(3-chloro-4-(trifluoromethyl)phenethyl)-35-(cylohexylmethyl)-18-isopropyl-5,6,12,15,16,19,21,21,22,33,36-undecamethyltetracosahydro-2H-azeto[2,1-u]pyrrolo[2,1-i] [1,4,7,10,13,16,19,22,25,28,31]undecaazacyclotetratriacontyne-4,7,10,13,17,20,23,28,31,34,37(14H)-undecone] (cyclo([Aze][NMeCha][Sar][hPhe(3-Cl-4-CF3)]P[NMeAib][NMeV][NMedβ3hAla][NMeI]I[NMeA])), the IC50 stood at 3.5 nM.

In the case of `CC[C@H](C)[C@@H]1NC(=O)[C@H](C)N(C)C(=O)C[C@@H](C(=O)N2CCCCC2)N(C)C(=O)[C@H](C(C)C)N(C)C(=O)C2(CCCC2)NC(=O)[C@H](Cc2ccccc2Cl)N(CC)C(=O)[C@H](CCc2ccc(C(F)(F)F)c(Cl)c2)NC(=O)CN(C)C(=O)[C@H](CC2CCCCC2)N(C)C(=O)CN(C)C(=O)CN(C)C1=O` [Compound 2161, (8S,11S,17S,26S,29S,33S,36S)-8-[(2-chlorophenyl)methyl]-11-[2-[3-chloro-4-(trifluoromethyl)phenyl]ethyl]-17-(cyclohexylmethyl)-9-ethyl-36-isopropyl-15,18,21,24,29,30,34,37-octamethyl-26-[(1S)-1-methylpropyl]-33-(piperidine-1-carbonyl)-6,9,12,15,18,21,24,27,30,34,37-undecazaspiro[4.33]octatriacontane-7,10,13,16,19,22,25,28,31,35,38-undecone] ([NMeA]I[Sar][Sar][NMeCha][Sar][hPhe(3-Cl-4-CF3)][NEtPhe(2-Cl)][Ac5c][NMeV][NMeD]-Piperidide; lactam N-11), the concentration for half-maximal inhibition (IC50) amounted to 480 nM.

With `CC[C@H](C)[C@@H]1NC(=O)[C@H](C)N(C)C(=O)C[C@@H](C(=O)N(C)C)N(C)C(=O)[C@H]([C@@H](C)CC)N(C)C(=O)C2(CCCC2)NC(=O)[C@H](Cc2ccccc2Cl)N(CC)C(=O)[C@H](CCc2ccc(C(F)(F)F)c(Cl)c2)NC(=O)CN(C)C(=O)[C@H](Cc2ccc(C)cc2)N(C)C(=O)[C@@H]2CCN2C(=O)[C@H](C)N(C)C1=O` [Compound 2163] ([NMeA]I[NMeA][Aze][NMePhe(4-Me)][Sar][hPhe(3-Cl-4-CF3)][NEtPhe(2-Cl)][Ac5c][NMeI][NMeD]-NMe2; lactam N-11), the half-maximal inhibitory concentration (IC50) amounted to 73 nM.

With `CC[C@H](C)[C@@H]1NC(=O)[C@H](C)N(C)C(=O)C[C@@H](C(=O)N(C)C)N(C)C(=O)[C@H](C(C)C)N(C)C(=O)C2(CCCC2)NC(=O)[C@H](Cc2ccccc2Cl)N(CC)C(=O)[C@H](CCc2ccc(C(F)(F)F)c(Cl)c2)NC(=O)CN(C)C(=O)[C@H](CC2CCCCC2)N(C)C(=O)CN(C)C(=O)CN(C)C1=O` [Compound 2164] ([NMeA]I[Sar][Sar][NMeCha][Sar][hPhe(3-Cl-4-CF3)][NEtPhe(2-Cl)][Ac5c][NMeV][NMeD]-NMe2; lactam N-11), the IC50 is 300 nM.
